# Source: patent US20110045139A1, “FERMENTED SAUSAGE AND METHODS OF MAKING SAME” (priority 2009, published 2011)
# Read-outs that look alike come from different tables or passages of the source.
# Key:
# E. coli O157:H7 [1] = assay: In vitro formation of isothiocyanates by myrosinase, viable counts; format: cell-based, Escherichia coli O157:H7; conditions: glucosinolate 2.5 mM plus myrosinase 0.2 U/tube, MHB with sausage ingredients
# E. coli O157:H7 [2] = conditions: pH 4.9; cited from earlier work
# [3] = system: E. coli O157:H7 (5-strain cocktail); assay: microbe, parasite or virus in culture; format: cell-based, Escherichia coli O157:H7; conditions: for MBC / Growth inhibition (p < 0.05): pH 5.5
# Staphylococcus carnosus = assay: microbe, parasite or virus in culture; format: cell-based; conditions: pH 5.5
# Pediococcus pentosaceus = assay: microbe, parasite or virus in culture; format: cell-based; conditions: pH 5.5
# [4] = system: Escherichia coli, Staphylococcus aureus, Campylobacter jejuni, Pseudomonas aeruginosa, Salmonella Enteritidis, Listeria monocytogenes, Shigella boydii and …; conditions: cited from earlier work
# E. coli O157:H7 [5] = assay: Minimum inhibitory concentration at dry-cured sausage pH; format: cell-based, Escherichia coli O157:H7; conditions: pH 5.5
smiles,measurement,setting,value
C=CCC(=NOS(=O)(=O)O)S[C@@H]1O[C@H](CO)[C@@H](O)[C@H](O)[C@H]1O (stereo in doubt) [sinigrin],time after which E. coli was not detectable,E. coli O157:H7 [1],2 days
"C=CCN=C=S [AIT, allyl isothiocyanate]",minimum inhibitory concentration,E. coli O157:H7 [2],~250 µM
same,MBC,"[3]; Escherichia coli, 18 h",1040 µM
same,Growth inhibition (p < 0.05),[3],0.26 mM
same,MBC,"Staphylococcus carnosus; Staphylococcus carnosus, 18 h",1040 µM
same,Growth inhibition (p < 0.05),Staphylococcus carnosus,0.26 mM
same,MBC,"Pediococcus pentosaceus; Pediococcus pentosaceus, 18 h",20800 µM
same,Growth inhibition (p < 0.05),Pediococcus pentosaceus,10.40 mM
"OCc1ccc(O)cc1 [ρ-HBA, ρ-hydroxybenzyl alcohol]",inhibitory activity against E. coli O157:H7,[3],very weak
same,Growth inhibition (p < 0.05),[3],20.14 mM
O=S(=O)(O)O/N=C(/Cc1ccc(O)cc1)S[C@@H]1O[C@H](CO)[C@@H](O)[C@H](O)[C@H]1O [sinalbin],time after which E. coli was not detectable,E. coli O157:H7 [1],3 days
"Oc1ccc(CN=C=S)cc1 [ρ-HBIT, ρ-hydroxybenzyl isothiocyanate]",bactericidal concentration,[4],0.35 to 2.13 mM
same,minimum inhibitory concentration,E. coli O157:H7 [5],~600 µM
same,Growth inhibition (p < 0.05),[3],0.59 mM
same,MBC,[3],1480 µM
same,Growth inhibition (p < 0.05),Staphylococcus carnosus,0.3 mM
same,MBC,Staphylococcus carnosus,590 µM
same,Growth inhibition (p < 0.05),Pediococcus pentosaceus,1.48 mM
same,MBC,Pediococcus pentosaceus,5920 µM
